# In patent US11485713B2, “Androgen receptor modulators and methods for their use” (ESSA Pharma, Inc., priority 2018, dated 2022):
# Columns and labels:
# [1] = Microsomal stability assay, MLM; type: in vitro ADME; details: mouse, pH 7.4, 1 μM test compound, 0.5 mg/mL liver microsomes protein, 37° C., 0-60 min, read-out: MLM +/− NADPH: Clint (μL/min/mg protein)
# Source text: (§1) Microsomal Stability Assay: Microsomal stability assay is a widely used in vitro model to characterize the metabolic conversion by phase I enzymes, such as cytochrome P450 (CYP) enzymes. Since metabolism is known to be highly variable in different species, microsomal stability assay is commonly run in multiple species. Metabolic stability of testing compound can be evaluated using human, rat, mouse, or other animal liver or intestine microsomes to predict intrinsic clearance.
# (§2) The assay was carried out in 96-well microtiter plates at 37° C. Reaction mixtures (25 μL) contained a final concentration of 1 μM test compound, 0.5 mg/mL liver microsomes protein, and 1 mM NADPH and/or 1 mM UDPGA (with alamethicin) in 100 mM potassium phosphate, pH 7.4 buffer with 3 mM MgCl2. The incubation was done with N=1, but duplicate incubation at each time point can be prepared if necessary. At each of the time points (for example, 0, 15, 30, and 60 minutes), 150 μL of quench solution (100% acetonitrile with 0.1% formic acid) with internal standard was transferred to each well. Besides the zero minute controls, mixtures containing the same components except the NADPH can also be prepared as the negative control. Verapamil was included as a positive control to verify assay performance. Plates were sealed, vortexed, and centrifuged at 4° C. for 15 minutes at 4000 rpm. The supernatant is transferred to fresh plates for LC/MS/MS analysis.
# (§3) Summarized conditions: [Compound]=1 μM, [LM]=0.5 mg/mL, [NADPH]=1 mM and/or [UDPGA]=1 mM, Buffer=100 mM Potassium Phosphate, pH 7.4 with 3 mM MgCl2, Time=0, 15, 30, and 60 min, and Temperature=37° C.
# (§4) All samples were analyzed on LC/MS/MS using an AB Sciex API 4000 instrument, coupled to a Shimadzu LC-20AD LC Pump system. Analytical samples were separated using a Waters Atlantis T3 dC18 reverse phase HPLC column (20 mm×2.1 mm) at a flow rate of 0.5 mL/min. The mobile phase consisted of 0.1% formic acid in water (solvent A) and 0.1% formic acid in 100% acetonitrile (solvent B).
# (§5) The extent of metabolism is calculated as the disappearance of the test compound, compared to the 0-min time incubation. Initial rates are calculated for the compound concentration and used to determine half-life (t½) values and subsequently, the intrinsic clearance (Clint). Clint=(0.693)(1/t½ (min))(g of liver/kg of body weight)(mL incubation/mg of microsomal protein)(45 mg of microsomal protein/g of liver weight)
# [2] = Hepatocyte stability assay, MH; type: in vitro ADME; details: mouse, cryopreserved hepatocytes, 1 μM test compound, 0.5 million cells/mL hepatocytes, 37° C., 0-180 min, read-out: MH +/− NADPH: Clint (μL/min/million cells)
# Source text: Hepatocyte Stability Assay: The […] of in vitro intrinsic clearance (Clint) for drug candidates in the early discovery stage is common practice in the pharmaceutical industry. The Clint values of drug candidates can help to confirm whether metabolism is the main clearance pathway when it is compared with the total body clearance in vivo. Hepatocytes are among the routinely used in vitro systems for measuring clearance. Hepatocytes have been reported to retain most of the phase I and phase II metabolic activities, and therefore, it is a useful tool to estimate the intrinsic clearance for potential drug candidates.
# Metabolic stability of testing compound were be evaluated using human and mouse hepatocytes and can also be use rat, mouse, or other animal hepatocytes to predict intrinsic clearance. Cryopreserved hepatocytes were removed from the liquid nitrogen tank and thawed in a 37° C. water bath. As soon as the cells pulled away from the vial wall, they were decanted into 48 ml of warm HT medium. Cells were centrifuged for four minutes at 420 rpm (50 g). After removing the supernatant, pellet was re-suspended in warm DMEM medium. Cell density was counted by a hemacytometer.
# The assay was carried out in 96-well microtiter plates. Compounds were incubated for 0, 60, 120, and 180 minutes at 37° C. with hepatocytes. Reaction mixtures (50 μL) contained a final concentration of 1 μM test compound, 0.5 million cells/mL hepatocytes in the DMEM medium. At each of the time points (for example, 0, 1, 2, and 3 hours), 200 μL of quench solution (100% acetonitrile with 0.1% formic acid) with internal standard was transferred to each well. Midazolam was included as a positive control to verify assay performance. Plates were sealed and centrifuged at 4° C. for 15 minutes at 4000 rpm. The supernatant is transferred to fresh plates for LC/MS/MS analysis.
# Summarized conditions (customizable): [Compound]=[…], Positive control: midazolam and/or naloxone, [Hepatocyte]=0.5 million cells/Ml, time=0, 60, 120, and 180 m t=37° C.
# as §4, with “ABSciex” for “AB Sciex”
# The extent of metabolism was calculated as the disappearance of the test compound, compared to the 0-min control reaction incubations. Initial rates were calculated for the compound concentration and used to determine t½ values and subsequently, the intrinsic clearance, Clint. Clint=(0.693)(1/t½ (min))(mL incubation/million cells)
# [3] = Microsomal stability assay, HLM; type: in vitro ADME; details: human, pH 7.4, 1 μM test compound, 0.5 mg/mL liver microsomes protein, 37° C., 0-60 min, read-out: HLM +/− NADPH: Clint (μL/min/mg protein)
# Source text: as §1, §2, §3, §4, §5
# LNCaP ARE-Luc = assay: Luciferase assay in LNCaP cell lysates (LNCaP ARE-Luc); type: cell-based; details: Homo sapiens, Firefly Luciferase Assay System, read-out: LNCaP ARE-Luc % inhibition IC50 Ranges
# Procedure: Lysates were thawed on ice then collected into V-bottom 96-well tissue culture plates. Lysates were centrifuged at 4° C. for 5 minutes at 4000 rpm. To measure luminescence of LNCaP cell lysates the Firefly Luciferase Assay System (Promega) was employed, according to manufacturer's protocol. Relative luminescence units (RLU) in cell lysates were detected for 10 seconds using Promega GoMax-Multi Detection Luminometer (Promega).
# Statistical analyses were performed using GraphPad Prism (Version 6.01 for Windows; La Jolla, Calif., USA). Comparisons between treatment and control groups were compared using Two-Way ANOVA with post-hoc Dunnett's and Tukey's tests. Differences were considered statistically significant at P values less than 0.05. Densitometric quantification of relative AR levels was determined by Image.
microsomal CLint at 1 μM [1] [µL/min/mg],hepatocyte CLint at 1 μM [2] [µL/min/1e6 cells],microsomal CLint at 1 μM [3] [µL/min/mg],IC50 (LNCaP ARE-Luc) [nM],SMILES
≥ 48,≥ 18,≥ 48,,COCC(=O)COc1ccc(C(C)(C)c2cc(Cl)c(OCC(C)(O)CCl)c(Cl)c2)cc1 (stereo not drawn) [Compound A60]
≥ 48,≥ 18,≥ 48,,COCC(=O)COc1ccc(C(F)(F)c2cc(Cl)c(OCC(O)CCl)c(Cl)c2)cc1 (stereo not drawn) [Compound A58]
,≥ 18,≥ 48,< 100,"CC(C)(c1ccc(OCC(=O)CNS(C)(=O)=O)cc1)c1cc(Cl)c(OC[C@H](O)CCl)c(Cl)c1 [A51(S), (S)—N-(3-(4-(2-(3,5-dichloro-4-(3-chloro-2-hydroxypropoxy)phenyl)propan-2-yl)phenoxy)-2-oxopropyl)methanesulfonamide]"
≥ 48,≥ 18,≥ 48,≥ 250,"CC(C)(c1ccc(OCC(=O)CS(C)(=O)=O)cc1)c1cc(Cl)c(OCCCCl)c(Cl)c1 [Compound A55, 1-(4-(2-(3,5-dichloro-4-(3-chloropropoxy)phenyl)propan-2-yl)phenoxy)-3-(methylsulfonyl)propan-2-one]"
,≥ 18,≥ 48,< 100,"CC(C)(c1ccc(OCC(=O)CNS(C)(=O)=O)cc1)c1cc(Cl)c(OCCCCl)c(Cl)c1 [Compound A31, N-(3-(4-(2-(3,5-dichloro-4-(3-chloropropoxy)phenyl)propan-2-yl)phenoxy)-2-oxopropyl)methanesulfonamide]"

# More lines, now with the values behind:
SMILES,microsomal CLint at 1 μM [1] [µL/min/mg],hepatocyte CLint at 1 μM [2] [µL/min/1e6 cells],microsomal CLint at 1 μM [3] [µL/min/mg],IC50 (LNCaP ARE-Luc) [nM]
COCC(=O)COc1ccc(C(C)(C)c2cc(Cl)c(OCCCCl)c(Cl)c2)cc1 [Compound A59],≥ 48,≥ 18,≥ 48,
COCC(=O)COc1ccc(Cc2cc(Cl)c(OCC(O)CCl)c(Cl)c2)cc1 (stereo not drawn) [Compound A57],≥ 48,≥ 18,≥ 48,
"COCC(=O)COc1ccc(C(C)(C)c2cc(Cl)c(OC[C@H](O)CCl)c(Cl)c2)cc1 [A56(S), (S)-1-(4-(2-(3,5-dichloro-4-(3-chloro-2-hydroxypropoxy)phenyl)propan-2-yl)phenoxy)-3-methoxypropan-2-one]",≥ 48,≥ 18,≥ 48,≥ 250
CC(C)(c1ccc(OCC(=O)CNS(C)(=O)=O)cc1)c1cc(Cl)c(OCCCBr)c(Cl)c1 [Compound A61],≥ 48,≥ 18,≥ 48,100 to 250
CC(C)(c1ccc(OCC(=O)CS(C)(=O)=O)cc1)c1cc(Cl)c(OCC(O)CCl)c(Cl)c1 (stereo not drawn) [Compound A54],≥ 48,≥ 18,≥ 48,
